In patent US11760889B2, “Unsaturated fatty alcohol derivatives from natural oil metathesis” (priority 2012, dated 2023):
Read-outs that look alike come from different tables or passages of the source.

Assays:
[1] = Anionic emulsifier: emulsion stability testing of EW concentrate (modified ASTM E1116-98)
Experimental: Turbidity changes are noted and recorded.
A Mohr pipette is used to feed EW concentrate to each cylinder. Cylinders are stoppered and inverted ten times, then allowed to stand for 0.5, 1, and 24 h while recording stability at each time as type and % separation.
Spontaneity is recorded according to the following criteria: (1) poor: very thin emulsion cloud with major separation of oil droplets; (2) fair: thin emulsion cloud with minor separation of oil droplets; (3) good: thin emulsion cloud reaches the bottom of the cylinder without separation of any type; (4) excellent: thick emulsion cloud reaches the bottom of the cylinder without separation of any type.

[2] = Water-soluble herbicide formulation testing (standard dilution test, emulsion stability); format: physicochemical; parameters: key to Emulsion stability, mL separation, 24 h: Tr = trace; settings: 342 ppm water;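 further: diluted in a 50 mL Nessler cylinder held at 30 °C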
Experimental: Surfactant candidates for water soluble herbicide applications are examined as a replacement for the anionic, nonionic, or anionic/nonionic blend portion and compared to a known industry adjuvant standard for use in paraquat, a water soluble herbicide concentrate formulation. A standard dilution test is conducted whereby the concentrates are diluted in water to determine if solubility is complete.
The cylinder is stoppered and inverted ten times. Solubility is recorded as complete or incomplete. Cylinders are allowed to stand and the amount (in mL) and type of separation are recorded after 30 min., 1 h, 2 h, and 24 h. Results of the solubility testing appear in Table 3 below.
An eight to ten mole alkyl phenol ethoxylate surfactant (0.7 g) is added and vigorously mixed for 30 s. Test sample (0.7 g) is added and mixing resumes for 30 s.
Test sample (0.7 g) is added and vigorously mixed for 30 s. Sodium linear alkylbenzene sulfonate (“NaLAS,” 0.7 g) is added and mixing resumes for 30 s.

[3] = Surfactant phase behavior study (cross-polarized microscopy); format: physicochemical; settings: room temperature (20-22° C.)
Experimental: Phase behavior is observed using an Olympus BH-2 cross-polarized microscope at 100-400× and room temperature (20° C. to 22° C.). The inventive monounsaturated sulfates and ethoxylate sulfates are compared with their saturated analogs, and in some cases, commercial surfactants.
Samples are prepared by diluting the most concentrated product gradually with deionized water. When the surfactant concentration approaches a phase transition, the concentration is varied at 2-4% intervals to estimate the phase boundary. The actives level reported in Table 15 for each phase boundary is within ±5% of the true boundary.
Samples are loaded between a microscope slide and cover glass and are allowed to equilibrate before observation. Microscopic texture is analyzed and used to determine the phase. For some samples, an AR 2000 rheometer (TA Instruments) is used to measure viscosity at 25° C. to further verify phase behavior.

[4] = Emulsion polymerization surfactant screen
Experimental: A reaction kettle is charged with sodium bicarbonate (0.50 g), water (225 g), and seed latex (30 g) and the mixture is heated to and held at 83° C. under nitrogen with stirring at 200 rpm. […] Methyl methacrylate (255 g), butyl acrylate (235 g), and methacrylic acid (10 g) are combined in an Erlenmeyer flask and mixed. […] Separately, two other mixtures are prepared: an initiator shot mixture of ammonium persulfate (1.0 g) in water (20 g), and a cofeed mixture of ammonium persulfate (2.70 g), sodium bicarbonate (1.50 g), and water (75 g); the total amount of initiator used is 0.74% based on monomers. The initiator shot is charged to the 83° C. reaction kettle dropwise over 1 min, then held for 10 min. The monomer emulsion is then fed to the kettle at 2.1 mL/min. for 10 min. The feed rate of the monomer emulsion is increased to 4.2 mL/min., and the cofeed mixture is started at 0.37 mL/min. Total addition time is 3 h, during which particle size and temperature are monitored. After addition of the monomer emulsion is complete, a water wash (50 g) is started, and heating at 83° C. continues for 1 h. The product is cooled. The pH is adjusted to 7.5 with dilute ammonium hydroxide solution. A preservative is added, and the mixture is filtered.

[5] = Adjuvant (anionic/nonionic) test sample

| Molecule | % Separation, 1 h ([1]; 34 ppm water) | % Separation, 24 h ([1]; 34 ppm water) | % Separation, 1 h ([1]; 1000 ppm water) | % Separation, 24 h ([1]; 1000 ppm water) | Emulsion stability, mL separation, 1 h [2, 5] | Emulsion stability, mL separation, 24 h [2, 5] | Emulsion stability, mL separation, 1 h ([2]; Anionic test sample) | Emulsion stability, mL separation, 24 h ([2]; Anionic test sample) | Emulsion stability, mL separation, 1 h ([2]; Nonionic test sample) | Emulsion stability, mL separation, 24 h ([2]; Nonionic test sample) | Estimated Phase Region: Hexagonal [3] | Estimated Phase Region: Lamellar [3] | Estimated Phase Region: Solid/gum/paste [3] | Estimated Phase Region: Unknown [3] | Estimated Phase Region: Isotropic Clear [3] | pre-emulsion stability ([4]; surfactant level in EP 0.50%) | pre-emulsion stability [4] |
| --- | --- | --- | --- | --- | --- | --- | --- | --- | --- | --- | --- | --- | --- | --- | --- | --- | --- |
| C=CCCCCCCCCOS(=O)(=O)O.N [A10-2] | 3.8% | 4% | 3.1% | 3.8% | 0 mL | 0 mL | 0 mL | 0 mL | 0 mL | Tr | 42-64 % actives | 64-80 % actives | 80-100 % actives | 0-42 % actives | – | – | – |
| C=CCCCCCCCCOS(=O)(=O)[O-].[Na+] [A10-3] | 4% | 4% | 3% | 3.1% | 0 mL | 0 mL | 0 mL | 0 mL | 0 mL | Tr | 43-70 % actives | 70-81 % actives | 81-100 % actives | – | 0-43 % actives | – | – |
| C12 Alcohol Sodium Sulfate [A12-3] | 4.5% | 5.7% | 3% | 4% | 0 mL | Tr | 0 mL | 0 mL | 0 mL | Tr | 38-66 % actives | 66-83 % actives | 83-100 % actives | – | 0-38 % actives | stable | – |
| calcium alkylbenzenesulfonate [Control 1] | – | – | – | – | – | – | – | – | – | – | – | – | – | – | – | – | stable |
